Assay results taken from patent publication US20210254056A1, “IDENTIFICATION AND TARGETED MODULATION OF GENE SIGNALING NETWORKS” (CAMP4 THERAPEUTICS CORPORATION, priority 2017, published 2021).

System: hepatocytes
Experiment: RNA-seq of hepatocytes treated with Phase III failure compounds
Conditions: hepatocytes
Experimental: RNA-seq was performed to determine the effects of the compounds on hepatocytes.
Significance was determined by the criteria of FPKM≥0.5, a log 2(fold-change)≥1, and a […].

COc1nc(N)nc2c1ncn2[C@@H]1O[C@H](COP(=O)(N[C@@H](C)C(=O)OCC(C)(C)C)Oc2cccc3ccccc23)[C@@H](O)[C@@]1(C)O (some centres unmarked) [Bms-986094 (inx-189), Bms-986094]
significant modulation of expression of disease genes (RNA-seq, q≤0.05, genes in the value or listed in the block): significantly (q≤0.05) modulate expression
A1BG expression, RNA-seq result (gene A1BG): −0.1
AARS2 expression, RNA-seq result (gene AARS2): 0.13
AASS expression, RNA-seq result (gene AASS): −0.77
ABAT expression, RNA-seq result (gene ABAT): −1.42
ABCA1 expression, RNA-seq result (gene ABCA1): −0.43
ABCB4 expression, RNA-seq result (gene ABCB4): −0.43
ABCB11 expression, RNA-seq result (gene ABCB11): −0.76
ABCC2 expression, RNA-seq result (gene ABCC2): −1.34
ABCC3 expression, RNA-seq result (gene ABCC3): −0.96
ABCC6 expression, RNA-seq result (gene ABCC6): −1.45
ABCD1 expression, RNA-seq result (gene ABCD1): 0.08
ABCD3 expression, RNA-seq result (gene ABCD3): −0.4
ABCG5 expression, RNA-seq result (gene ABCG5): −0.11
ABCG8 expression, RNA-seq result (gene ABCG8): −0.11
ABHD5 expression, RNA-seq result (gene ABHD5): 0.25
ACACA expression, RNA-seq result (gene ACACA): −2.09
ACACB expression, RNA-seq result (gene ACACB): −1.86
ACAD9 expression, RNA-seq result (gene ACAD9): −0.83
ACADSB expression, RNA-seq result (gene ACADSB): −0.04
ACADVL expression, RNA-seq result (gene ACADVL): 0.11
ACOT8 expression, RNA-seq result (gene ACOT8): −0.33
ACOX2 expression, RNA-seq result (gene ACOX2): −0.97
ACOX3 expression, RNA-seq result (gene ACOX3): −1.75
ACSF3 expression, RNA-seq result (gene ACSF3): −0.6
ACSL1 expression, RNA-seq result (gene ACSL1): −0.12
ACSL3 expression, RNA-seq result (gene ACSL3): 0.16
ACTG2 expression, RNA-seq result (gene ACTG2): −0.13
ACTN1 expression, RNA-seq result (gene ACTN1): −2.21
ADA expression, RNA-seq result (gene ADA): −0.72
ADCK3 expression, RNA-seq result (gene ADCK3): 0.18
ADK expression, RNA-seq result (gene ADK): −1.7
ADSL expression, RNA-seq result (gene ADSL): −0.96
AFP expression, RNA-seq result (gene AFP): −0.16
AGK expression, RNA-seq result (gene AGK): −0.43
AGL expression, RNA-seq result (gene AGL): −0.97
AGPAT2 expression, RNA-seq result (gene AGPAT2): −1.09
AGPS expression, RNA-seq result (gene AGPS): −1.61
AGT expression, RNA-seq result (gene AGT): 0.27
AGTR1 expression, RNA-seq result (gene AGTR1): −0.07
AGXT expression, RNA-seq result (gene AGXT): −0.66
AHI1 expression, RNA-seq result (gene AHI1): −0.61
AHSG expression, RNA-seq result (gene AHSG): −0.32
AK1 expression, RNA-seq result (gene AK1): 0.62
AKR1C1 expression, RNA-seq result (gene AKR1C1): −0.96
AKR1C2 expression, RNA-seq result (gene AKR1C2): −1.2
AKR1C4 expression, RNA-seq result (gene AKR1C4): −1.68
AKR1D1 expression, RNA-seq result (gene AKR1D1): 0.17
ALAD expression, RNA-seq result (gene ALAD): −0.69
ALAS1 expression, RNA-seq result (gene ALAS1): 0.11
ALDH1B1 expression, RNA-seq result (gene ALDH1B1): −0.86
ALDH2 expression, RNA-seq result (gene ALDH2): −0.04
ALDH6A1 expression, RNA-seq result (gene ALDH6A1): −0.08
ALDOA expression, RNA-seq result (gene ALDOA): −0.48
ALDOB expression, RNA-seq result (gene ALDOB): −0.27
ALG12 expression, RNA-seq result (gene ALG12): −0.76
ALMS1 expression, RNA-seq result (gene ALMS1): −1.35
ALPL expression, RNA-seq result (gene ALPL): −1.05
AMACR expression, RNA-seq result (gene AMACR): 0.28
AMPD3 expression, RNA-seq result (gene AMPD3): 0.57
AMT expression, RNA-seq result (gene AMT): −0.61
ANGPTL3 expression, RNA-seq result (gene ANGPTL3): −0.73
ANKS4B expression, RNA-seq result (gene ANKS4B): −0.39
ANKS6 expression, RNA-seq result (gene ANKS6): −0.13
ANPEP expression, RNA-seq result (gene ANPEP): −0.47
AOC2 expression, RNA-seq result (gene AOC2): 0.32
AP3B1 expression, RNA-seq result (gene AP3B1): −1.36
APC expression, RNA-seq result (gene APC): −0.04
APOA1 expression, RNA-seq result (gene APOA1): −0.05
APOA2 expression, RNA-seq result (gene APOA2): 0.31
APOA5 expression, RNA-seq result (gene APOA5): −0.18
APOB expression, RNA-seq result (gene APOB): −0.78
APOC2 expression, RNA-seq result (gene APOC2): 0
APOC3 expression, RNA-seq result (gene APOC3): 0.42
APOE expression, RNA-seq result (gene APOE): −0.56
APRT expression, RNA-seq result (gene APRT): −0.42
AQP7 expression, RNA-seq result (gene AQP7): −0.35
AQP9 expression, RNA-seq result (gene AQP9): −0.05
ARG1 expression, RNA-seq result (gene ARG1): −1.7
ARG2 expression, RNA-seq result (gene ARG2): 0.62
ARL13B expression, RNA-seq result (gene ARL13B): −0.67
ARSA expression, RNA-seq result (gene ARSA): 0.27
ARSB expression, RNA-seq result (gene ARSB): −0.25
ASL expression, RNA-seq result (gene ASL): −0.24
ASNS expression, RNA-seq result (gene ASNS): 1.61
ASPA expression, RNA-seq result (gene ASPA): 1.55
ASXL1 expression, RNA-seq result (gene ASXL1): −1.04
ATG7 expression, RNA-seq result (gene ATG7): −1.54
ATIC expression, RNA-seq result (gene ATIC): −0.74
ATM expression, RNA-seq result (gene ATM): −0.5
ATP7A expression, RNA-seq result (gene ATP7A): −0.03
ATP7B expression, RNA-seq result (gene ATP7B): −0.8
ATP8B1 expression, RNA-seq result (gene ATP8B1): −2.3
B2M expression, RNA-seq result (gene B2M): 0.23
B9D2 expression, RNA-seq result (gene B9D2): −0.83
BAAT expression, RNA-seq result (gene BAAT): −1.93
BBOX1 expression, RNA-seq result (gene BBOX1): −0.77
BBS10 expression, RNA-seq result (gene BBS10): 0.59
BCHE expression, RNA-seq result (gene BCHE): −0.67
BCKDHB expression, RNA-seq result (gene BCKDHB): −1.21
BCKDK expression, RNA-seq result (gene BCKDK): −0.42
BCO1 expression, RNA-seq result (gene BCO1): 0.72
BCR expression, RNA-seq result (gene BCR): −1.54
BLNK expression, RNA-seq result (gene BLNK): 1.31
BLOC1S3 expression, RNA-seq result (gene BLOC1S3): 0.01
BMPR1A expression, RNA-seq result (gene BMPR1A): −0.9
BRAF expression, RNA-seq result (gene BRAF): −0.44
BSCL2 expression, RNA-seq result (gene BSCL2): 0.07
BTD expression, RNA-seq result (gene BTD): −0.53
C4A expression, RNA-seq result (gene C4A): 0.29
C9 expression, RNA-seq result (gene C9): 0.55
C10orf10 expression, RNA-seq result (gene C10orf10): 0.23
C10orf11 expression, RNA-seq result (gene C10orf11): −2.08
C15orf41 expression, RNA-seq result (gene C15orf41): −1.68
CA2 expression, RNA-seq result (gene CA2): 0.9
CA5A expression, RNA-seq result (gene CA5A): −1.34
CA12 expression, RNA-seq result (gene CA12): 0.58
CAV1 expression, RNA-seq result (gene CAV1): −0.74
CCND1 expression, RNA-seq result (gene CCND1): −0.78
CD46 expression, RNA-seq result (gene CD46): 0.43
CD81 expression, RNA-seq result (gene CD81): 0.03
CD320 expression, RNA-seq result (gene CD320): −0.96
CDAN1 expression, RNA-seq result (gene CDAN1): 0.38
CDH1 expression, RNA-seq result (gene CDH1): −1.79
CEP19 expression, RNA-seq result (gene CEP19): −0.28
CEP83 expression, RNA-seq result (gene CEP83): −0.39
CEP164 expression, RNA-seq result (gene CEP164): 0.23
CEP290 expression, RNA-seq result (gene CEP290): 0.21
CFB expression, RNA-seq result (gene CFB): 0.29
CFHR2 expression, RNA-seq result (gene CFHR2): 0.7
CHRM3 expression, RNA-seq result (gene CHRM3): −2.02
CIDEC expression, RNA-seq result (gene CIDEC): −0.6
CLDN1 expression, RNA-seq result (gene CLDN1): −0.83
COG1 expression, RNA-seq result (gene COG1): 0.5
